# Columns and labels:
# rats = assay: Single dose oral toxicity test using rats; assay type: in vivo, rat
# Protocol: (§1) In order to evaluate the safety of the PPAR-α activator compound according to the present invention for application as a skin external preparation, an animal toxicity test and a human patch test were performed.
# (§2) To perform this evaluation, a single dose oral toxicity test using rats, a skin irritation test using rabbits, a skin sensitization test using guinea pigs and an ophthalmic mucous membrane irritation test using rabbits were performed as toxicity tests for PC-9S in animals. Those tests were performed based on “Toxicity Test Standards for Pharmaceutical Products” disclosed by the Korea Food & Drug Administration. Additionally, a human patch test for PC-9S was carried out on 30 subjects (average age: 24.1). […] However, when evaluating the overall results obtained from the other toxicity tests and the human patch test, it was considered that the pseudo-ceramide compound would not pose a safety problem.
# rabbits [1] = assay: Skin irritation test using rabbits; assay type: in vivo, rabbit
# Protocol: as §1, §2
# guinea pigs = assay: Skin sensitization test using guinea pigs; assay type: in vivo, guinea pig
# Protocol: as §1, §2
# rabbits [2] = assay: Ophthalmic mucous membrane irritation test using rabbits; assay type: in vivo, rabbit
# Protocol: as §1, §2
# human skin = assay: Human patch test; assay type: in vivo; details: 30 subjects
# Protocol: as §1, §2
compound,measurement,setting,value
CCCCCCCCCCCCCCCCCC(=O)C(CCCCCCCCCCCCCCCC)C(=O)NCCO (stereo not drawn) [PC-9S],Single dose oral toxicity test (toxicity test) result,rats,No irritation
same,Skin irritation test using rabbits result,rabbits [1],slight skin irritation
same,Skin sensitization test using guinea pigs result,guinea pigs,No irritation
same,Ophthalmic mucous membrane irritation test using rabbits result,rabbits [2],No irritation
same,Human patch test result,human skin; 1% PC-9S,No irritation
same,Human patch test result,human skin; 10% PC-9S,No irritation

# — patent US20100173995A1, “Use of PPAR-alpha activator as inflammatory skin disease-treating agent and method for treating skin diseases using the same” (Neopharm Co., Ltd., priority 2009, published 2010)
